We go through 14 compounds from patent US20260365663A1, “EMOPAMIL-BINDING PROTEIN INHIBITORS AND USES THEREOF” (BIOGEN MA INC., priority 2022, published 2026).

The target of one assay is T1, EBP (Homo sapiens, UniProt Q15125).
T1 construct: HEK293T cells were utilized as the source of EBP enzyme; endogenous in cells; host or cells: HEK293T
T1 sequence (Q15125 whole entry): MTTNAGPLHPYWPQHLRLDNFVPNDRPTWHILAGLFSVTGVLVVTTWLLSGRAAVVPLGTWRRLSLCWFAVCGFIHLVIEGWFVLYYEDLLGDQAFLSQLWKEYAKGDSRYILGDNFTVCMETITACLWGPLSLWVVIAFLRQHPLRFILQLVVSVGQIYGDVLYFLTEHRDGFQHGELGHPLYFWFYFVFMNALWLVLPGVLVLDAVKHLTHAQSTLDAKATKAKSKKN
In words: EBP Functional Assay (EBP immunoaffinity LC-MS assay). It counts as biochemical.
Settings: not given
How it is done: The EBP immunoaffinity (IA) LC-MS assay measures the potency of small molecule inhibitors of EBP by quantifying their concentration-dependent changes in the enzyme's substrate and product using liquid chromatography atmospheric pressure chemical ionization multiple reaction monitoring mass spectrometry (LC-APCI MRM MS). HEK293T cells were utilized as the source of EBP enzyme. The enzyme was incubated with the small molecule inhibitors at variable concentrations for 30 min. Deuterated form of EBP substrate, zymosterol-d5 (Avanti Polar Lipids, Cat #700068P-1 mg), was then added and the plate was incubated at 37 °C for 4 h. Finally, the sterol isomers were extracted and injected to LC-APCI MRM MS. MRM transition used for the quantification for both zymosterol and dihydrolathosterol (substrate and product of EBP enzymatic reaction, respectively) is 372.3-203.2, CE 30 and DP 80 in positive ion mode. Percent conversion of the zymosterol-d5 to dehydrolathosterol-d5 was used to derive IC50 curves. Tasin-1 (1′-[(4-Methoxyphenyl)sulfonyl]-4-methyl-1,4′-bipiperidine, CAS 792927-06-1) was used as the reference small molecule inhibitor.
Percent conversion versus the compound concentration data were fit to the following 4-parameter logistic model to generate IC50 curves: […]
In the case of `Cc1cc(S(=O)(=O)N2CC3(CCC(N4CCOCC4)C3)C2)n(C)n1` (centres unmarked) [Example 36, 4-(2-((1,3-Dimethyl-1H-pyrazol-5-yl)sulfonyl)-2-azaspiro[3.4]octan-6-yl)morpholine], the IC50 lay within 100 to 500 nM.
Still for that read-out and setting: in the case of `Cc1nn(C)c(S(=O)(=O)N2CC3(CCC(N4CCOCC4)C3)C2)c1Cl` (centres unmarked) [Example 37, 4-(2-((4-Chloro-1,3-dimethyl-1H-pyrazol-5-yl)sulfonyl)-2-azaspiro[3.4]octan-6-yl)morpholine] it was 100 to 500 nM.
`Cc1nn(C)c(S(=O)(=O)N2CC3(CCC(N4CCOCC4)C3)C2)c1C(F)F` (centres unmarked) [Example 38, 4-(2-((4-(Difluoromethyl)-1,3-dimethyl-1H-pyrazol-5-yl)sulfonyl)-2-azaspiro[3.4]octan-6-yl)morpholine] had an IC50 of 100 to 500 nM.
Same read-out and setting: under `COc1ccc(S(=O)(=O)N2CC3(CCC(N4CCOCC4)C3)C2)c(C(F)(F)F)n1` (centres unmarked) [Example 39, 4-(2-((6-Methoxy-2-(trifluoromethyl)pyridin-3-yl)sulfonyl)-2-azaspiro[3.4]octan-6-yl)morpholine] stands less than 100 nM.

Still in this assay, the particulars now being: HEK293T cells as source of EBP enzyme; zymosterol-d5 substrate; inhibitor 30 min, then 37 °C for 4 h; percent conversion to dehydrolathosterol-d5 by LC-APCI MRM MS; read-out: EBP Functional Assay.
Take `N#Cc1ccc(F)c(S(=O)(=O)N2CC3(CC(NC4CCC(F)(F)CC4)CO3)C2)c1` (centres unmarked) [Example 26, 3-((7-((4,4-Difluorocyclohexyl)amino)-5-oxa-2-azaspiro[3.4]octan-2-yl)sulfonyl)-4-fluorobenzonitrile]: the IC50 lay within 500 to 3000 nM.
The same measure, in the same setting: in the case of `N#Cc1ccc(F)c(S(=O)(=O)N2CC3(CC(NC4CCOCC4)CO3)C2)c1` (centres unmarked) [Example 27, 4-Fluoro-3-((7-((tetrahydro-2H-pyran-4-yl)amino)-5-oxa-2-azaspiro[3.4]octan-2-yl)sulfonyl)benzonitrile] it was 500 to 3000 nM; in that of `N#Cc1cc(F)cc(S(=O)(=O)N2CC3(CC(N4CC5(COC5)C4)CO3)C2)c1` (centres unmarked) [Example 28, 3-((7-(2-Oxa-6-azaspiro[3.3]heptan-6-yl)-5-oxa-2-azaspiro[3.4]octan-2-yl)sulfonyl)-5-fluorobenzonitrile], 500 to 3000 nM.
Still for that read-out and setting: in the case of `Cc1cnc(S(=O)(=O)N2CC3(CCC(N4CCOCC4)C3)C2)c(C)c1` (centres unmarked) [Example 29, 4-(2-((3,5-Dimethylpyridin-2-yl)sulfonyl)-2-azaspiro[3.4]octan-6-yl)morpholine] it was 500 to 3000 nM; in that of `COc1ccc(S(=O)(=O)N2CC3(CCC(N4CC5(COC5)C4)C3)C2)c(C)n1` (centres unmarked) [Example 30, 6-(2-((6-Methoxy-2-methylpyridin-3-yl)sulfonyl)-2-azaspiro[3.4]octan-6-yl)-2-oxa-6-azaspiro[3.3]heptane], 500 to 3000 nM.
The same measure, in the same setting: under `COc1ccc(S(=O)(=O)N2CC3(CCC(NC4CCC(F)(F)CC4)C3)C2)c(C)n1` (centres unmarked) [Example 31, N-(4,4-Difluorocyclohexyl)-2-((6-methoxy-2-methylpyridin-3-yl)sulfonyl)-2-azaspiro[3.4]octan-6-amine] stands 100 to 500 nM; under `COCCN(C)C1CCC2(C1)CN(S(=O)(=O)c1ccc(OC)nc1C)C2` (centres unmarked) [Example 32, 2-((6-Methoxy-2-methylpyridin-3-yl)sulfonyl)-N-(2-methoxyethyl)-N-methyl-2-azaspiro[3.4]octan-6-amine], less than 100 nM.
Consider `COCCN(C)C1CCC2(C1)CN(S(=O)(=O)c1cc(C(F)(F)F)nn1C)C2` (centres unmarked) [Example 33, N-(2-Methoxyethyl)-N-methyl-2-((1-methyl-3-(trifluoromethyl)-1H-pyrazol-5-yl)sulfonyl)-2-azaspiro[3.4]octan-6-amine], for which the IC50 lay within 500 to 3000 nM.
Same read-out and setting: under `COc1cc(S(=O)(=O)N2CC3(CCC(N4CCOCC4)C3)C2)n(C)n1` (centres unmarked) [Example 34, 4-(2-((3-Methoxy-1-methyl-1H-pyrazol-5-yl)sulfonyl)-2-azaspiro[3.4]octan-6-yl)morpholine] stands 100 to 500 nM.
As for `Cn1nc(C(F)(F)F)cc1S(=O)(=O)N1CC2(CCC(N3CCOCC3)C2)C1` (centres unmarked) [Example 35, 4-(2-((1-Methyl-3-(trifluoromethyl)-1H-pyrazol-5-yl)sulfonyl)-2-azaspiro[3.4]octan-6-yl)morpholine], the IC50 lay within 100 to 500 nM.
